Source: patent publication US10077436B2, “Beta-glucosidase enzymes for increased biomass saccharification” (Edeniq, Inc., priority 2013, dated 2018)

System: A-BG (Accellerase® BG from DuPont), commercial beta-glucosidase
Test: BG kinetics, cellobiose hydrolysis assay (HPLC) with glucose as competitive inhibitor, A-BG
Type: biochemical
Source text: The kinetic properties of beta glucosidase are important for cellulosic hydrolysis, since in commercial situations a wide range of substrate concentrations and different product inhibition conditions will be encountered. In this example, a Michaelis-Menten kinetics model was used to describe BG kinetics.
BG activity assay using cellobiose is the other standard assay to measure BG or cellobiase activity, which utilizes hydrolysis of cellobiose by cellobiase into two molecules of glucose, the last step of enzymatic hydrolysis of cellulose. One cellobiase unit (commonly termed as CBU) is defined as the amount of enzyme that converts […] of cellobiose or produces 2 μmol of glucose per min. Briefly, to determine BG activity, 25 μL of diluted enzyme in 50 mM citrate buffer (pH 4.8) equilibrated to 50° C. was mixed with 25 μL cellobiose (or cellobiose/glucose mixture for the kinetic study) to start the reaction. The mixture was incubated at 50° C. for 10 min, and the reaction was terminated by incubating the mixture at 99° C. for 5 min. Different methods are available to measure the glucose produced in the assays. For the kinetic study, HPLC was used.
To determine kinetic properties using cellobiose substrate, duplicate assays with cellobiose concentrations ranging from 0.47 to 15 mM and glucose concentrations of 0, 0.9, 4.5, 6.75, and 8.1 (for A-BG) or 9 (for all the other three BGs) g/L were performed. As for pNPG substrate, the range of cellobiose substrate concentration was chosen to show detectable activity at the lowest substrate concentration and saturation stage at high substrate concentration. […] Moreover, theoretically there are two ways to measure BG activity by HPLC when cellobiose is used as the substrate: tracking consumption of cellobiose or tracking production of glucose. […] In Table 3, A % is defined as follows and is an indicator of measurement sensitivity, since the difference of substrate or product concentrations before and after reaction was used to determine BG activity. Δ%=(start conc. of cellobiose−end conc. of cellobiose)/start conc. of cellobiose×100% (3) Δ%=(end conc. of glucose−start conc. of glucose)/start conc. of glucose×100% (4)
A similar simultaneous nonlinear regression method based on the competitive inhibition equation expressed in Equation (1) was used to determine kinetic parameters of BG towards cellobiose.
The specific activity used here was determined by the initial velocity approach that is required by implementing Michaelis-Menten model (Copeland, 2000). The specific activity was determined by measuring consumption of cellobiose in the first 10 min of reaction and was expressed as μmol min^−1 mg^−1, where mg^−1 means per mg of total protein. The relative activity was determined based on the maximum activity obtained in the absence of initial glucose inhibition.
The above experimental data were fit in the competitive inhibition model as expressed in Equation (1) by simultaneous nonlinear regression.

## OC[C@H]1OC(O)[C@H](O)[C@@H](O)[C@@H]1O (stereo partly drawn) [glucose]
9 g/L (0.9% w/v) initial glucose, cellobiose substrate
  loss of activity towards cellobiose under glucose inhibition: completely lost its activity
Cellobiose substrate, competitive inhibition, pH 4.8, 50° C.
  Ki: 5.2 ± 0.63 mM
Inhibitor influence, Km for cellobiose / Ki for glucose, pH 4.8, 50° C.
  Km/Ki: 1.26
